This note sets out measurements from US20020169175A1, “Pharmaceutically acceptable salts of heterocyclic compounds” (DR. REDDY'S LABORATORIES LTD., priority 2001, published 2002).

Where a name gives a salt, the structure may show the parent alone.

The test system of one data set is Swiss albino mice. As to the kind of experiment: Plasma triglyceride and total cholesterol lowering activity in Swiss albino mice and Guinea pigs. It counts as in vivo, mouse. The note with it: oral, 6 days. How it is done:
c) Plasma Triglyceride and Total Cholesterol Lowering Activity in Swiss Albino Mice and Guinea Pigs
Male Swiss albino mice (SAM) and male Guinea pigs were obtained from NIN and housed in DRF animal house. All these animals were maintained under 12 hour light and dark cycle at 25±1° C. Animals were given standard laboratory chow (NIN Hyderabad, India) and water, ad libitum. SAM of 20-25 g body weight range and Guinea pigs of 500-700 g body weight range were used (Oliver, P., Plancke, M. O., Marzin, D., Clavey, V., Sauzieres, J and Fruchart, J. C. Effects of fenofibrate, gemfibrozil and nicotinic acid on plasma lipoprotein levels in normal and hyperlipidemic mice. Atherosclerosis. 1988. 70: 107-114).
The test compounds were administered orally to Swiss albino mice at 0.3 to 30 mg/kg/day dose for 6 days. Control mice were treated with vehicle (0.25% Carboxymethylcellulose; dose 10 ml/kg). The test compounds were administered orally to Guinea pigs at 0.3 to 30 mg/kg/day dose for 6 days. Control animals were treated with vehicle (0.25% Carboxymethylcellulose; dose 5 ml/kg).
The blood samples were collected in fed state 1 hour after drug administration on 0 and 6 day of treatment. The blood was collected from the retro-orbital sinus through heparinised capillary in EDTA containing tubes. After centrifugation, plasma sample was separated for triglyceride and total cholesterol (Wieland, O. Methods of Enzymatic analysis. Bergermeyer, H. O., Ed., 1963. 211-214; Trinder, P. Ann. Clin. Biochem. 1969. 6: 24-27). Measurement of plasma triglyceride, total cholesterol and HDL were done using commercial kits (Dr. Reddy's Diagnostic Division, Hyderabad, India).
1. Percent reduction in Blood sugar/triglycerides/total cholesterol were calculated according to the formula: [formula]

Data set [1] can be described thus: Single dose oral pharmacokinetic studies in male Wistar rats. The note with it: fasted, suspension in 0.25% sodium CMC. Format: in vivo, rat. How it is done: Single Dose Oral Pharmacokinetic Studies
Male Wistar rats (220-250 gm) were used in the experiments. The animals were maintained under standard laboratory conditions and had free access to feed and water ad libitum. Before experimentation animals were fasted overnight (˜15 h) during which they had free access to water ad libitum.
An amount equivalent to 30 mg of drug was weighed accurately and transferred into a clean mortar and triturated to obtain a fine powder. To this 0.5 ml of 0.25% sodium carboxy methyl cellulose (sodium CMC) was added to obtain a paste. To the obtained paste remaining 2.5 ml of sodium CMC was added to make up the volume to 3 ml. Based on the animal weight appropriate volume (body weight×3) of the prepared suspension was administered through oral gavage.
After dosing, at designated time points (0.5, 1, 2, 3, 5, 8, 12 and 24 h) 200 μl of blood was collected from retro orbital plexus into 0.5 ml eppendorff tubes containing EDTA (10 μl of 200 mg/ml solution in Milli Q water). Blood was centrifuged at 12,800 rpm for 5 min and obtained plasma and stored at −20° C. till further analysis.
100μl plasma was transferred into a clean and dry centrifuge tube. To this internal standard (10 μl of 100 μg/ml) was added and extracted with 2 ml of extraction recovery solvent. The contents were vortexed for 2 min, followed by centrifugation for 10 min at 2800 rpm. Clear organic layer (2×0.75 ml) was separated and dried under nitrogen gas at 50° C. The residue was reconstituted with 150 μl of mobile phase and vortexed for 20 sec, from this 50 μl was injected onto HPLC column.
Pharmacokinetic parameters were calculated by non-compartmental model analysis. The peak plasma concentration (Cmax) and the corresponding time (Tmax)were directly obtained from the raw data. The area under the plasma concentration versus time curve up to the last quantifiable time point, AUC(0−t) was obtained by the linear and log-linear trapezoidal summation. The AUC(0−t) extrapolated to infinity (i.e., AUC(0−∞)) by adding the quotient of Clast/Kel, where Clast represents the last measurable time concentration and Kel represents the apparent terminal rate constant. Kel was calculated by the linear regression of the log-transformed concentrations of the drug in the terminal phase. The half-life of the terminal elimination phase was obtained using the relationship t½=0.693/Kel.

Another data set deals with T1, hPPARγ1 (Homo sapiens, UniProt P37231).
T1 construct: expressed in transfected cells; host or cells: HEK-293
T1 sequence (P37231 238-503 limits assumed): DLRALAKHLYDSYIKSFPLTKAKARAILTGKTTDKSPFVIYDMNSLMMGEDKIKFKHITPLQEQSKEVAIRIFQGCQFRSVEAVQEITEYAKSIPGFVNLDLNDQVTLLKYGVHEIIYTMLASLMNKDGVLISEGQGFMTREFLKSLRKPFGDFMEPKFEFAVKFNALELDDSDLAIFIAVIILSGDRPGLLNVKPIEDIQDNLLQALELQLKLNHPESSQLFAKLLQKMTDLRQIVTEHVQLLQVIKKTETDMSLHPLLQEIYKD
As to the kind of experiment: Determination of hPPARγ activity (GAL4 fusion luciferase reporter in transfected HEK-293 cells). It counts as cell-based. The note with it: compound concentration 1 μM. The method, then: b) Determination of hPPARγ Activity
Ligand binding domain of hPPARγ1 was fused to DNA binding domain of Yeast transcription factor GAL4 in eucaryotic expression vector. Using lipofectamine (Gibco BRL, USA) as transfecting reagent HEK-293 cells were transfected with this plasmid and a reporter plasmid harboring the luciferase gene driven by a GAL4 specific promoter. Compound was added at 1 μM concentration after 48 hrs of transfection and incubated overnight. Luciferase activity as a function of drug binding/activation capacity of PPARγ1 was measured using Packard Luclite kit (Packard, USA) in Packard Top Count (Ivan Sadowski, Brendan Bell, Peter Broag and Melvyn Hollis. Gene. 1992. 118: 137-141; Guide to Eukaryotic Transfections with Cationic Lipid Reagents. Life Technologies, GIBCO BRL, USA).

The target of another data set is T2, hPPARα (Homo sapiens, UniProt Q07869).
T2 construct: expressed in transfected cells; host or cells: HEK-293
T2 sequence (Q07869 239-466 limits assumed): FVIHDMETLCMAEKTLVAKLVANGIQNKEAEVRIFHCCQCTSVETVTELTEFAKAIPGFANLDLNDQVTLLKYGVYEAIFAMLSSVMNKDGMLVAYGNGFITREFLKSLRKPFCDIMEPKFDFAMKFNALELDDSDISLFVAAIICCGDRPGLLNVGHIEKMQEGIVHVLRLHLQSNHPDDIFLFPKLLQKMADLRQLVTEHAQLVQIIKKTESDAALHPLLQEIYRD
As to the kind of experiment: Determination of hPPARα activity (GAL4 fusion luciferase reporter in transfected HEK-293 cells). It counts as cell-based. The note with it: compound concentration 50 μM. The method, then:
a) Determination of hPPARα Activity
Ligand binding domain of hPPARα was fused to DNA binding domain of Yeast transcription factor GAL4 in eucaryotic expression vector. Using superfect (Qiagen, Germany) as transfecting reagent HEK-293 cells were transfected with this plasmid and a reporter plasmid harboring the luciferase gene driven by a GAL4 specific promoter. Compound was added at different concentrations after 42 hrs of transfection and incubated overnight. Luciferase activity as a function of compound binding/activation capacity of PPARα was measured using Packard Luclite kit (Packard, USA) in Top Count (Ivan Sadowski, Brendan Bell, Peter Broag and Melvyn Hollis. Gene. 1992. 118: 137-141; Superfect Transfection Reagent Handbook. February 1997. Qiagen, Germany).
(In general: Reporter assays use an easily measured gene product as a stand-in for the process of interest.)

What is called AUC(0-t) is the area under the concentration-time curve up to a stated or last time point. Low readings indicate less exposure, high ones more exposure. One may read the Cmax as the maximum level reached in the sampled fluid or tissue. As a reminder, the Tmax is the time at which the peak concentration occurs. One may read the t½ as how long it takes for the measured level to halve. On to `CCCc1nn(C)c2c(=O)n(CCOc3ccc(CC(OCC)C(=O)[O-])cc3)c(CC)nc12.CCCc1nn(C)c2c(=O)n(CCOc3ccc(CC(OCC)C(=O)[O-])cc3)c(CC)nc12.[Mg+2]` (single isomer, unassigned; (-)) [Example 31, (−)-3-[4-[2-(1-Methyl-5-ethyl-7-oxo-3-propyl-6,7-dihydro-1H-pyrazolo[4,3-d]pyrimidin-6-yl)ethoxy]phenyl]-2-ethoxypropionic acid magnesium salt], for which the “Triglyceride Lowering (%)” value in the data set with Swiss albino mice (dose 3 mg/kg) was 84%. In data set [1], the “AUC (0-∞)” value worked out at 65.93 µg·h/mL, the “AUC(0-t)” value was 64.70 µg·h/mL, the Cmax was 19.15 µg/mL and the Kel was 0.34 h⁻¹. In addition, in data set [1], the time of peak concentration (Tmax) is given as 2.75 h and the t½ was determined as 2.24 h.

For the molecule `CCO[C@@H](Cc1ccc(OCCn2c(CC)nc3ccccc3c2=O)cc1)C(=O)O` [Example 1, (−)-3-[4-[2-(2-Ethyl-4-oxo-3,4-dihydroquinazolin-3-yl)ethoxy]phenyl]-2-ethoxypropanoic acid phenyl glycinol salt], in the data set on Swiss albino mice (dose 3 mg/kg), the “Triglyceride Lowering (%)” value was 87%.

As for `CCO[C@@H](Cc1ccc(OCCn2c(CC)nc3ccccc3c2=O)cc1)C(=O)O` [Example 3, (−)-3-[4-[2-(2-Ethyl-4-oxo-3,4-dihydroquinazolin-3-yl)ethoxy]phenyl]-2-ethoxypropanoic acid dicyclohexylamine salt], the “Triglyceride Lowering (%)” value with Swiss albino mice (dose 3 mg/kg) is 81%.

For the molecule `CCO[C@@H](Cc1ccc(OCCn2c(N=[N+]=[N-])nc3ccccc3c2=O)cc1)C(=O)O` [Example 12, (−)-3-[4-[2-(2-Azido-4-oxo-3,4-dihydroquinazolin-3-yl)ethoxy]phenyl]-2-ethoxypropanoic acid magnesium salt], the “Triglyceride Lowering (%)” value with Swiss albino mice (dose 0.3 mg/kg) turned out to be 37%.

The molecule `CCCc1nn(C)c2c(=O)n(CCOc3ccc(CC(OCC)C(=O)[O-])cc3)c(C)nc12.CCCc1nn(C)c2c(=O)n(CCOc3ccc(CC(OCC)C(=O)[O-])cc3)c(C)nc12.[Mg+2]` (centres unmarked) [Example 16, 3-[4-[2-(1,5-Dimethyl-7-oxo-3-propyl-6,7-dihydro-1H-pyrazolo[4,3-d]pyrimidin-6-yl)ethoxy]phenyl]-2-ethoxypropionic acid magnesium salt] yielded a PPARγ on hPPARγ1 of 13.5. On hPPARα, this molecule had a PPARα of 3.4.

Consider `CCCc1nn(C)c2c(=O)n(CCOc3ccc(C[C@H](OCC)C(=O)[O-])cc3)c(C)nc12.[Na+]` [Example 20, 3-[4-[2-(1,5-Dimethyl-7-oxo-3-propyl-6,7-dihydro-1H-pyrazolo[4,3-d]pyrimidin-6-yl)ethoxy]phenyl]-2-ethoxypropionic acid sodium salt], for which the PPARγ at hPPARγ1 is 13.0. For the same molecule, the PPARα on hPPARα is reported as 3.5.

The molecule `CCCc1nn(C)c2c(=O)n(CCOc3ccc(C[C@H](OCC)C(=O)O)cc3)c(C)nc12` [Example 23, 3-[4-[2-(1,5-Dimethyl-7-oxo-3-propyl-6,7-dihydro-1H-pyrazolo[4,3-d]pyrimidin-6-yl)ethoxy]phenyl]-2-ethoxypropionic acid S-(+)-phenylglycinol salt] yielded a PPARγ on hPPARγ1 of 11.5. Besides, the PPARα on hPPARα turned out to be 3.4.

Broadly, the melting point is the temperature of the solid-liquid transition. In turn, `CCCc1nn(C)c2c(=O)n(CCOc3ccc(C[C@H](OCC)C(=O)[O-])cc3)c(CC)nc12.[Na+]` [Example 35, (−)-3-[4-[2-(1-Methyl-5-ethyl-7-oxo-3-propyl-6,7-dihydro-1H-pyrazolo[4,3-d]pyrimidin-6-yl)ethoxy]phenyl]-2-ethoxypropionic acid sodium salt] came in with a melting point of 112 to 114 °C.

On hPPARγ1, `CCCc1nn(C)c2c(=O)n(CCOc3ccc(C[C@H](OCC)C(=O)O)cc3)c(CC)nc12` [Example 36, (−)-3-[4-[2-(1-Methyl-5-ethyl-7-oxo-3-propyl-6,7-dihydro-1H-pyrazolo[4,3-d]pyrimidin-6-yl)ethoxy]phenyl]-2-ethoxypropionic acid arginine salt] displayed a PPARγ of 11.4.

On hPPARγ1, `CCCc1nn(C)c2c(=O)n(CCOc3ccc(C[C@H](OCC)C(=O)O)cc3)c(CC)nc12` [Example 38, (−)-3-[4-[2-(1-Methyl-5-ethyl-7-oxo-3-propyl-6,7-dihydro-1H-pyrazolo[4,3-d]pyrimidin-6-yl)ethoxy]phenyl]-2-ethoxypropionic acid S-(+)-phenylglycinol salt] gave a PPARγ of 12.0. The molecule also had a PPARα at hPPARα of 3.3.

In the case of `CCCc1nn(C)c2c(=O)n(CCOc3ccc(C[C@H](OCC)C(=O)O)cc3)c(CC)nc12` [Example 41, (−)-3-[4-[2-(1-Methyl-5-ethyl-7-oxo-3-propyl-6,7-dihydro-1H-pyrazolo[4,3-d]pyrimidin-6-yl)ethoxy]phenyl]-2-ethoxypropionic acid dicyclohexylamine salt], the PPARγ on hPPARγ1 is reported as 13.0. The same molecule showed a PPARα on hPPARα of 3.1.

Take `CCCc1nn(C)c2c(=O)n(CCOc3ccc(C[C@H](OCC)C(=O)O)cc3)c(CC)nc12` [Example 45, (−)-3-[4-[2-(1-Methyl-5-ethyl-7-oxo-3-propyl-6,7-dihydro-1H-pyrazolo[4,3-d]pyrimidin-6-yl)ethoxy]phenyl]-2-ethoxypropionic acid Lysine salt]: the “Triglyceride Lowering (%)” value with Swiss albino mice (dose 3 mg/kg) came to 81%. For the same molecule, in data set [1], the “AUC (0-∞)” value turned out to be 101.29 µg·h/mL, the “AUC(0-t)” value amounted to 99.33 µg·h/mL, the Cmax is 24.22 µg/mL and the Kel was found to be 0.42 h⁻¹. Also, in data set [1], the time of peak concentration (Tmax) is 2.38 h and the t½ was determined as 1.72 h.
